Consider 23 compounds from patent US8344008B2 (Janssen Pharmaceutica NV, priority 2007, dated 2013).

The structures appear in SMILES notation.

This experiment concerns the target T1, recombinant human LTA4 hydrolase (rhLTA4H) (Homo sapiens, UniProt P09960).
T1 construct: made in house; host or cells: Spodoptera frugiperda (Sf-9) cells, baculovirus (pFastBac1)
T1 sequence (P09960 1-611): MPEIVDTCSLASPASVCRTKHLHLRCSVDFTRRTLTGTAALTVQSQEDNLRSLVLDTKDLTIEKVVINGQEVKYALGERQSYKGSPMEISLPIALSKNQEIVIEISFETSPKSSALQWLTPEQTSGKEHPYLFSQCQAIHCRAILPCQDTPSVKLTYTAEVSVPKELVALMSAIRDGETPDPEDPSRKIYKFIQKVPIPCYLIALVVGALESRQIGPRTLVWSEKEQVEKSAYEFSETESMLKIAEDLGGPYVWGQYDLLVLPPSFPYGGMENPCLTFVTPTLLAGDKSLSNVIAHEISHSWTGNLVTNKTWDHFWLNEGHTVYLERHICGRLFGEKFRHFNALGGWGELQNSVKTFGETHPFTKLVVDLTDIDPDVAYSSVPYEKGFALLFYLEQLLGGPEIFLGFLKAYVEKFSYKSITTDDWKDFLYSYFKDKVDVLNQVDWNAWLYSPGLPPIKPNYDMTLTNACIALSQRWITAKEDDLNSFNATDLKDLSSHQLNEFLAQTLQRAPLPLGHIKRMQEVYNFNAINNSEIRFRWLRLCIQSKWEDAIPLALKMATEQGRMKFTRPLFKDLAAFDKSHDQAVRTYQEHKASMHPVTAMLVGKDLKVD
In words: Recombinant Human LTA4 Hydrolase Assay for LTA4 Hydrolase Inhibitor Activity. Conditions: average of results obtained; LTB4 quantified by enzyme-linked immunoassay. It is filed as biochemical. As for the experimental part:
Biological Methods: Recombinant Human LTA4 Hydrolase Assay for LTA4 Hydrolase Inhibitor Activity
Compounds of the present invention were tested for LTA4 hydrolase inhibitor activity against recombinant human LTA4 hydrolase (rhLTA4H). Vectors were prepared and used to express rhLTA4H essentially as follows: LTA4 hydrolase encoding DNA was amplified by polymerase chain reaction (PCR) using a human placental cDNA library as a template. Oligonucleotide primers for the PCR reaction were based on the 5′-end, and the complement of the 3′-end, of the published nucleotide sequence for the coding region of the human LTA4 hydrolase gene (C. D. Funk et al., Proc. Natl. Acad. Sci. USA 1987, 84:6677-6681). The amplified 1.9 kb DNA fragment encoding LTA4 hydrolase was isolated and cloned into the pFastBac1 vector (Invitrogen). Recombinant baculovirus was generated as described by the manufacturer, and used to infect Spodoptera frugiperda (Sf-9) cells. Recombinant LTA4 hydrolase enzyme was purified from the infected Sf-9 cells essentially as described by J. K. Gierse et al. (Protein Expression and Purification 1993, 4:358-366). The purified enzyme solution was adjusted to contain 0.29 mg/mL LTA4 hydrolase, 50 mM Tris (pH 8.0), 150 mM NaCl, 5 mM dithiothreitol, 50% glycerol, and EDTA-free Complete protease inhibitor cocktail (Roche). The specific activity of the enzyme was about 3.8 μmol/min/mg.
LTA4 substrate was prepared from the methyl ester of LTA4 (Cayman Chemical) by treatment with 67 equiv of NaOH under nitrogen at rt for 40 min. The LTA4 substrate in its free acid form was kept frozen at −80° C. until needed. Each compound was diluted to different concentrations in assay buffer (0.1 M potassium phosphate (pH 7.4), 5 mg/mL fatty acid free BSA) containing 10% DMSO. A 25-uL aliquot of each compound dilution was incubated for 10 min at rt with an equal volume of assay buffer containing 36 ng of recombinant human LTA4H. The solution was then adjusted to 200 μL with assay buffer. LTA4 (free acid) was thawed and diluted in assay buffer to a concentration of 357 ng/mL, and 25 μL (9 ng) of LTA4 substrate was added to the reaction mixture (total volume=225 μL) at time zero. Each reaction was carried out at rt for 10 min. The reaction was stopped by diluting 10 μL of the reaction mixture with 200 μL of assay buffer. LTB4 was quantified in the diluted sample by a commercially available enzyme-linked immunoassay (Cayman Chemical Co.), as recommended by the manufacturer. Positive controls, under essentially identical conditions but without addition of an inhibitor compound, and negative controls, containing all assay components except enzyme, were routinely run in each experiment. […]
Results for the compounds tested in this assay are presented in Table 1 as an average of results obtained.
As to `CC(C)(O)C(=O)N[C@H]1C[C@H]2CC[C@@H](C1)N2Cc1ccc(Oc2nc3ccccc3s2)cc1` [Example 54, meso-endo-N-{8-[4-(Benzothiazol-2-yloxy)-benzyl]-8-aza-bicyclo[3.2.1]oct-3-yl}-2-hydroxy-2-methyl-propionamide], the Ki (commonly the equilibrium dissociation constant of an inhibitor or competing ligand from its target) was found to be 4 nM.
Take `CC(C)(C)OC(=O)NCC(=O)N1C[C@@H]2C[C@H]1CN2Cc1ccc(Oc2nc3ccccc3s2)cc1` [Example 14, (S,S)-(2-{5-[4-(Benzothiazol-2-yloxy)-benzyl]-2,5-diaza-bicyclo[2.2.1]hept-2-yl}-2-oxo-ethyl)-carbamic acid tert-butyl ester]: the Ki is 9 nM.
For `NC(=O)N1[C@@H]2CC[C@H]1C[C@H](NCCc1ccc(Oc3nc4c(F)cccc4s3)cc1)C2` [Example 212, meso-exo-3-{2-[4-(4-Fluoro-benzothiazol-2-yloxy)-phenyl]-ethylamino}-8-aza-bicyclo[3.2.1]octane-8-carboxylic acid amide] the value was 248 nM; for `CC(C)(C)OC(=O)N1CC(C(=O)N2C[C@@H]3C[C@H]2CN3Cc2ccc(Oc3nc4ccccc4s3)cc2)C1` [Example 64, (S,S)-3-{5-[4-(Benzothiazol-2-yloxy)-benzyl]-2,5-diaza-bicyclo[2.2.1]heptane-2-carbonyl}-azetidine-1-carboxylic acid tert-butyl ester], 58 nM.
Consider `CS(=O)(=O)N[C@@H]1C[C@H]2CC[C@@H](C1)N2CCOc1ccc(Oc2nc3ccc(F)cc3s2)cc1` [Example 284, meso-exo-N-(8-{2-[4-(6-Fluoro-benzothiazol-2-yloxy)-phenoxy]-ethyl}-8-aza-bicyclo[3.2.1]oct-3-yl)-methanesulfonamide], for which the Ki stood at 29 nM.
Then `NC(=O)N1C[C@H]2C[C@@H]1CN2CCc1ccc(Oc2nc3cc(F)ccc3s2)cc1` [Example 244, (R,R)-5-{2-[4-(5-Fluoro-benzothiazol-2-yloxy)-phenyl]-ethyl}-2,5-diaza-bicyclo[2.2.1]heptane-2-carboxylic acid amide], with 12 nM; and `CC(=O)N[C@H]1C[C@H]2CC[C@@H](C1)N2Cc1ccc(Cc2nc3ccccc3o2)cc1` [Example 6, meso-endo-N-[8-(4-Benzooxazol-2-ylmethyl-benzyl)-8-aza-bicyclo[3.2.1]oct-3-yl]-acetamide], with 50 nM.
Take `CS(=O)(=O)N[C@@H]1C[C@H]2CC[C@@H](C1)N2Cc1ccc(Oc2nc3cccc(Cl)c3s2)cc1` [Example 215, meso-exo-N-{8-[4-(7-Chloro-benzothiazol-2-yloxy)-benzyl]-8-aza-bicyclo[3.2.1]oct-3-yl}-methanesulfonamide]: the Ki was determined as 90 nM.
Regarding `CC(=O)N1C[C@H]2C[C@@H]1CN2CCOc1ccc(Oc2nc3cccc(F)c3s2)cc1` [Example 218, (R,R)-1-(5-{2-[4-(7-Fluoro-benzothiazol-2-yloxy)-phenoxy]-ethyl}-2,5-diaza-bicyclo[2.2.1]hept-2-yl)-ethanone], the Ki amounted to 20 nM.
Then `Cc1ccc2nc(Oc3ccc(CCN[C@@H]4C[C@H]5CC[C@@H](C4)N5C(N)=O)cc3)sc2c1` [Example 173, meso-exo-3-{2-[4-(6-Methyl-benzothiazol-2-yloxy)-phenyl]-ethylamino}-8-aza-bicyclo[3.2.1]octane-8-carboxylic acid amide], with 973 nM; and `O=C(c1cccs1)N1CC2CN(Cc3ccc(Oc4nc5ccccc5s4)cc3)CC2C1` (centres unmarked) [Example 107, {5-[4-(Benzothiazol-2-yloxy)-benzyl]-hexahydro-pyrrolo[3,4-c]pyrrol-2-yl}-thiophen-2-yl-methanone], with 20 nM; and `CC(=O)NC1[C@H]2CN(Cc3ccc(Oc4nc5ccccc5s4)cc3)C[C@@H]12` (stereo partly drawn) [Example 93, (R,S)—N-{3-[4-(Benzothiazol-2-yloxy)-benzyl]-3-aza-bicyclo[3.1.0]hex-6-yl}-acetamide], with 34 nM.
For `Cc1ccc2nc(Oc3ccc(CCN4C5CCC4CN(S(C)(=O)=O)C5)cc3)sc2c1` [Example 214, meso-2-{4-[2-(3-Methanesulfonyl-3,8-diaza-bicyclo[3.2.1]oct-8-yl)-ethyl]-phenoxy}-6-methyl-benzothiazole] the value was 543 nM; for `NS(=O)(=O)N1CC2CN(Cc3ccc(Oc4nc5ccccc5s4)cc3)CC2C1` (centres unmarked) [Example 119, 5-[4-(Benzothiazol-2-yloxy)-benzyl]-hexahydro-pyrrolo[3,4-c]pyrrole-2-sulfonic acid amide], 72 nM.
For `CC(=O)N[C@H]1C[C@H]2CC[C@@H](C1)N2Cc1ccc(Oc2nc3c(Cl)cccc3s2)cc1` [Example 71, meso-endo-N-{8-[4-(4-Chloro-benzothiazol-2-yloxy)-benzyl]-8-aza-bicyclo[3.2.1]oct-3-yl}-acetamide] the value was 25 nM; for `NC(=O)N1C[C@H]2C[C@@H]1CN2CCOc1ccc(Oc2nc3cc(Cl)ccc3s2)cc1` [Example 176, (R,R)-5-{2-[4-(5-Chloro-benzothiazol-2-yloxy)-phenoxy]-ethyl}-2,5-diaza-bicyclo[2.2.1]heptane-2-carboxylic acid amide], 431 nM; for `CS(=O)(=O)N1CC2CN(Cc3ccc(Cc4nc5ccccc5s4)cc3)CC2C1` (centres unmarked) [Example 150, 2-[4-(5-Methanesulfonyl-hexahydro-pyrrolo[3,4-c]pyrrol-2-ylmethyl)-benzyl]-benzothiazole], 193 nM.
For `CC(C)(C)OC(=O)NC1(C(=O)N2C[C@@H]3C[C@H]2CN3Cc2ccc(Oc3nc4ccccc4s3)cc2)CC1` [Example 63, (S,S)-(1-{5-[4-(Benzothiazol-2-yloxy)-benzyl]-2,5-diaza-bicyclo[2.2.1]heptane-2-carbonyl}-cyclopropyl)-carbamic acid tert-butyl ester], the Ki amounted to 21 nM.
Then `NC(=O)N1CC2CN(Cc3ccc(Oc4nc5ccccc5s4)cc3F)CC2C1` (centres unmarked) [Example 159, 5-[4-(Benzothiazol-2-yloxy)-2-fluoro-benzyl]-hexahydro-pyrrolo[3,4-c]pyrrole-2-carboxylic acid amide], with 110 nM; and `NC(=O)N[C@H]1C[C@H]2CC[C@@H](C1)N2CCOc1ccc(Oc2nc3cc(F)ccc3s2)cc1` [Example 219, meso-endo-(8-{2-[4-(5-Fluoro-benzothiazol-2-yloxy)-phenoxy]-ethyl}-8-aza-bicyclo[3.2.1]oct-3-yl)-urea], with 15 nM.
For `CC(=O)N1[C@@H]2CC[C@H]1C[C@H](NCc1ccc(Oc3nc4cccc(Cl)c4s3)cc1)C2` [Example 166, meso-exo-1-{3-[4-(7-Chloro-benzothiazol-2-yloxy)-benzylamino]-8-aza-bicyclo[3.2.1]oct-8-yl}-ethanone], the Ki came out at 1900 nM.
Then `CC(C)(O)C(=O)N1C[C@@H]2C[C@H]1CN2CCc1cccc(Oc2nc3ccccc3s2)c1` [Example 19, (S,S)-1-(5-{2-[3-(Benzothiazol-2-yloxy)-phenyl]-ethyl}-2,5-diaza-bicyclo[2.2.1]hept-2-yl)-2-hydroxy-2-methyl-propan-1-one], with 163 nM; and `NC(=O)N[C@@H]1C[C@H]2CC[C@@H](C1)N2Cc1ccc(Oc2nc3c(Cl)cccc3s2)cc1` [Example 229, meso-exo-{8-[4-(4-Chloro-benzothiazol-2-yloxy)-benzyl]-8-aza-bicyclo[3.2.1]oct-3-yl}-urea], with 20 nM.
